Measured values taken from patent EP1063992B1, “SULFURPENTA FLUOROPHENYL PYRAZOLES FOR CONTROLLING ECTOPARASITIC INFESTATIONS” (MERCK & CO., INC., priority 1998, dated 1999).
Where two headings read alike, the source gives them in different places.

How the values were obtained:
[1] = administered systemically, animals; cited from earlier work
[2] = tested on: fleas and ticks; details: topical application; cited from earlier work
[3] = Plasma drug level in treated dogs; format: in vivo, Beagle dogs; details: dog, sc, group 2: sucrose octaacetate/triacetin formulation, 10 mg/kg subcutaneously, read-out: peak plasma levels
Experimental: (§1) Beagle dogs of both sexes 21 to 31 months old and weighing from 10 to 16 kg were used. Groups of three dogs each were treated with the same active compound in different formulations as follows: • Group 1: topical formulation containing 10% w/v of active compound, 5% w/v polyvinylpyrrolidone 30 and ethanol qs to 100%v/v dosed at 5 mg/kg. • Group 2: long acting parenteral formulation containing 10% w/v of the active compound, 25% w/v of sucrose octaacetate, 1% w/v of propylene glycol octanoate decanoate and triacetin qs 100% v/v dosed subcutaneously at 10 mg/kg. • Group 3: long acting parenteral formulation containing 10% w/v active compound, 10% w/v poly(DL-lactide/glycolide)75/25, and qs 100% v/v 1:1 glycerol formal/triacetin dosed at 10 mg/kg subcutaneously. • Control group of three untreated dogs was included.
(§2) Blood samples were collected from animals in treatment groups on Day 0 at 1, 2, 3 and 6 hours after treatment, on Day 1 at 24 hours after treatment, and whenever emesis was observed. Blood samples were also collected when flea counts were determined. Animals were observed hourly for 6 hours post treatment for emesis.

[4] = tested on: fleas; experiment: Activity against fleas in dogs (infestation with about 100 fleas, comb counts about 48 hours later); format: in vivo
Experimental: as §1
Treatments were administered once on Day 0. On Day 1 animals all animals were infested with approximately 100 fleas. Animals were combed and fleas counted and removed approximately 48 hours after infestation. Animals were infested on days 12 and 26, and combed and fleas counted and removed approximately 48 hours after infestation. Infestation/counting were repeated approximately monthly until efficacy fell below 80% [% efficacy = (1 - (mean flea count of treatment group ö mean flea count of control group) x 100).

[5] = Observation for emesis (vomition) in treated dogs; format: in vivo, Beagle dogs; details: 10 mg/kg subcutaneously
Experimental: as §1, §2

Cmax [3]	Structure (SMILES)	vomition [1]	duration of efficacy [2]	efficacy against fleas ([4]; group 1: topical formulation, 10% w/v active compound, 5 mg/kg once on Day 0, dogs, held for between 55 and 90 days)	efficacy against fleas ([4]; group 2: long acting parenteral formulation (sucrose octaacetate/triacetin), 10 mg/kg subcutaneously once, dogs, maintained for up to between 5 and 6 months)	duration of close to 100% efficacy against fleas ([4]; group 3: long acting parenteral formulation (poly(DL-lactide/glycolide)75/25, 1:1 glycerol formal/triacetin), 10 mg/kg subcutaneously once, dogs)	efficacy against fleas ([4]; group 3: long acting parenteral formulation (poly(DL-lactide/glycolide)75/25, 1:1 glycerol formal/triacetin), 10 mg/kg subcutaneously once, dogs, for >12 months)	vomition ([5]; group 2: sucrose octaacetate/triacetin formulation)	vomition ([5]; group 3: poly(DL-lactide/glycolide) formulation)
	N#Cc1nn(-c2c(Cl)cc(C(F)(F)F)cc2Cl)c(N)c1[S+]([O-])C(F)(F)F (stereo not drawn) [Fipronil, fipronil]	known to cause vomition	not more than three months						
> 100 ng/mL	N#Cc1nn(-c2c(Cl)cc(S(F)(F)(F)(F)F)cc2Cl)c(N)c1SC(F)(F)F [active compound]			> 90%	> 90%	> 12 months	~100%	Vomition occurred	No vomition was observed
